These compounds were tested against Ribosomal RNA A-site (assay: Binding affinity to bacterial ribosomal A site RNA oligonucleotide).
Assay type: nucleic-acid assay

| SMILES | Kd [µM] |
| --- | --- |
| CN[C@@H]1[C@@H](O)[C@@H](O[C@@H]2[C@@H](O)[C@H](O[C@H]3O[C@H]([C@@H](C)O)[C@@H](O)[C@H](O)[C@H]3N)[C@@H](N)C[C@H]2N)OC[C@]1(C)O [GENETICIN] | 14.5 |
| CN[C@@H]1[C@H](O)[C@@H](O[C@@H]2[C@@H](O)[C@H](O[C@H]3O[C@H](CN)CC[C@H]3N)[C@@H](N)C[C@H]2N)OC[C@]1(C)O [GENTAMICIN C] | 5.53 |
| NC[C@H]1O[C@H](O[C@H]2[C@H](O)[C@@H](O)[C@H](N)C[C@@H]2N)[C@H](N)[C@@H](O)[C@@H]1O [NEAMINE] | 7.39 |
| NC[C@@H]1O[C@H](O[C@H]2[C@@H](O)[C@H](O[C@@H]3[C@@H](O)[C@H](N)C[C@H](N)[C@H]3O[C@H]3O[C@H](CO)[C@@H](O)[C@H](O)[C@H]3N)O[C@@H]2CO)[C@H](N)[C@@H](O)[C@@H]1O [PAROMOMYCIN] | 0.39 |
| NC[C@H]1O[C@H](O[C@H]2[C@H](O[C@@H]3O[C@H](CO)[C@@H](O)[C@H]3O)[C@@H](O)[C@H](N)C[C@@H]2N)[C@H](N)[C@@H](O)[C@@H]1O [RIBOSTAMYCIN] | 16.4 |

— ChEMBL document CHEMBL1149500, “Binding of aminoglycosidic antibiotics to the oligonucleotide A-site model and 30S ribosomal subunit: Poisson-Boltzmann model, thermal denaturation, and fluorescence studies” (J Med Chem, 2006)
